Test results reported in the supplement of paper PMC4862054.

Legend:
Test in all cases: normalised viability (% of control), CellTiter-Blue; higher = more viable cells (about 100 = DMSO control)
Conditions in all cases: incubation time: 72 h
[1] = system: HCC1599
Summary of the method: (§1)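 Vehicle (100) and a positive kill control (0) anchored the normalisation of each plate, and Z'-factor was used for quality control. Breast cancer cell lines in 20 µl suspension were incubated 72 h over compound in 5 µl medium in 384-well plates, followed by CellTiter-Blue at 560/590 nm. The value is normalised viability at a single listed concentration of the series.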

[2] = system: Hs578T
Summary of the method: as §1

[3] = system: SK-BR-3
Summary of the method: as §1

[4] = system: MFM-223
Summary of the method: as §1

[5] = system: DU-4475
Summary of the method: as §1

[6] = system: CAL-51
Summary of the method: as §1

[7] = system: MDA-MB-453
Summary of the method: as §1

[8] = system: MDA-MB-468
Summary of the method: as §1

[9] = system: HCC1937
Summary of the method: as §1

[10] = system: MDA-MB-231
Summary of the method: as §1

[11] = system: MDA-MB-436
Summary of the method: as §1

[12] = system: CAL-148
Summary of the method: as §1

[13] = system: HCC1143
Summary of the method: as §1

[14] = system: CAL-120
Summary of the method: as §1

[15] = system: HDQ-P1
Summary of the method: as §1

[16] = system: BT-474
Summary of the method: as §1

[17] = system: BT-549
Summary of the method: as §1

[18] = system: CAL-85-1
Summary of the method: as §1

[19] = system: Hs578T; remark: listed apart in the source
Procedure: (§2)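 DSRT, CellTiter-Blue viability, 72 h incubation. Signal is normalised to DMSO and benzethonium chloride controls. Value is the normalised response at dose 3.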

[20] = system: SK-BR-3; remark: listed apart in the source
Procedure: as §2

[21] = system: MFM-223; remark: listed apart in the source
Procedure: as §2

[22] = system: MDA-MB-453; remark: listed apart in the source
Procedure: as §2

[23] = system: MDA-MB-468; remark: listed apart in the source
Procedure: as §2

[24] = system: MDA-MB-231; remark: listed apart in the source
Procedure: as §2

[25] = system: MDA-MB-436; remark: listed apart in the source
Procedure: as §2

[26] = system: HDQ-P1; remark: listed apart in the source
Procedure: as §2

[27] = system: BT-474; remark: listed apart in the source
Procedure: as §2

CS(=O)(=O)OCCCCOS(C)(=O)=O [Busulfan]
Conditions	normalised viability [%]
[1], 100 nM	90.2
[1], 10000 nM	75.4
[1], 100000 nM	109
[2], 100 nM	103
[2], 10000 nM	101
[2], 100000 nM	85.7
[3], 100 nM	95.1
[3], 10000 nM	104
[3], 100000 nM	87.8
[4], 100 nM	108
[4], 10000 nM	95.7
[4], 100000 nM	99.1
[5], 30 nM	96.1
[5], 300 nM	89.2
[5], 1000 nM	94.7
[6], 30 nM	103
[6], 300 nM	95.4
[6], 1000 nM	94.6
[7], 30 nM	95.9
[7], 300 nM	101
[7], 1000 nM	104
[8], 100 nM	99.1
[8], 10000 nM	109
[8], 100000 nM	90.5
[9], 100 nM	86.4
[9], 10000 nM	83.1
[9], 100000 nM	43.7
[10], 100 nM	94.3
[10], 10000 nM	95.4
[10], 100000 nM	94.3
[11], 100 nM	106
[11], 10000 nM	95.2
[11], 100000 nM	82.9
[12], 30 nM	124
[12], 300 nM	111
[12], 1000 nM	115
[13], 100 nM	104
[13], 10000 nM	108
[13], 100000 nM	108
[14], 100 nM	110
[14], 10000 nM	105
[14], 100000 nM	88.1
[15], 30 nM	109
[15], 300 nM	113
[15], 1000 nM	94.4
[16], 100 nM	107
[16], 10000 nM	114
[16], 100000 nM	108
[17], 100 nM	84
[17], 10000 nM	92.4
[17], 100000 nM	68.2
[18], 30 nM	106
[18], 300 nM	101
[18], 1000 nM	108
[19], 1000 nM	91.2
[20], 1000 nM	97.5
[21], 1000 nM	90.3
[22], 100 nM	102
[23], 1000 nM	114
[24], 1000 nM	99.5
[25], 1000 nM	93.3
[26], 100 nM	98.1
[27], 1000 nM	110

CCS(=O)(=O)c1cccc(-c2cc(C(=O)NC3CCN(C)CC3)c(C)c3[nH]c4ncc(C)cc4c23)c1 [TAK-901]
Conditions	normalised viability [%]
[1], 1 nM	93.6
[1], 100 nM	83
[1], 1000 nM	61.4
[2], 1 nM	124
[2], 100 nM	78
[2], 1000 nM	40.5
[3], 1 nM	98.9
[3], 100 nM	93.8
[3], 1000 nM	52
[4], 1 nM	96
[4], 100 nM	55
[4], 1000 nM	34
[5], 0.3 nM	94.7
[5], 3 nM	88.1
[5], 10 nM	101
[6], 0.3 nM	98
[6], 3 nM	92.8
[6], 10 nM	92.1
[7], 0.3 nM	102
[7], 3 nM	111
[7], 10 nM	83.5
[8], 1 nM	112
[8], 100 nM	33.1
[8], 1000 nM	63.6
[9], 1 nM	116
[9], 100 nM	80.7
[9], 1000 nM	35.2
[10], 1 nM	99.4
[10], 100 nM	64.9
[10], 1000 nM	20.6
[11], 1 nM	116
[11], 100 nM	96.1
[11], 1000 nM	70.6
[12], 0.3 nM	90.1
[12], 3 nM	95.3
[12], 10 nM	101
[13], 1 nM	87.3
[13], 100 nM	64.2
[13], 1000 nM	27.1
[14], 1 nM	84.4
[14], 100 nM	50.5
[14], 1000 nM	13.2
[15], 0.3 nM	111
[15], 3 nM	109
[15], 10 nM	113
[16], 1 nM	131
[16], 100 nM	107
[16], 1000 nM	78.6
[17], 1 nM	94.6
[17], 100 nM	71.2
[17], 1000 nM	20.1
[18], 0.3 nM	89.9
[18], 3 nM	86.3
[18], 10 nM	91.2
[19], 10 nM	131
[20], 10 nM	97.3
[21], 10 nM	81.8
[22], 1 nM	99.1
[23], 10 nM	105
[24], 10 nM	103
[25], 10 nM	101
[26], 1 nM	114
[27], 10 nM	113
